Legend:
Caco-2 permeation assay = type: in vitro ADME; conditions: human, pH 7.2, Caco-2, test compound 2 μM
Method: 4. Caco-2 Permeation Assay:
Caco-2 cells (purchased from DSMZ Braunschweig, Germany) were seeded at a density of 4.5×10^4 cells per well on 24 well insert plates, 0.4 μm pore size, and grown for 15 days in DMEM medium supplemented with 10% fetal bovine serum, 1% GlutaMAX (100x, GIBCO), 100 U/mL penicillin, 100 μg/mL streptomycin (GIBCO) and 1% non essential amino acids (100×). Cells were maintained at 37° C. in a humified 5% CO2 atmosphere. Medium was changed every 2-3 day. Before running the permeation assay, the culture medium was replaced by a FCS-free hepes-carbonate transport buffer (pH 7.2). For assessment of monolayer integrity the transepithelial electrical resistance (TEER) was measured. Test compounds were predissolved in DMSO and added either to the apical or basolateral compartment in final concentration of 2 μM in transport buffer. Before and after 2h incubation at 37° C. samples were taken from both compartments. Analysis of compound content was done after precipitation with methanol by LC/MS/MS analysis. Permeability (Papp) was calculated in the apical to basolateral (A →B) and basolateral to apical (B→A) directions. The apparent permeability was calculated using following equation: Papp=(Vr/Po)(1/S)(P2/t)
Where Vr is the volume of medium in the receiver chamber, Po is the measured peak area or height of the test drug in the donor chamber at t=o, S the surface area of the monolayer, P2 is the measured peak area of the test drug in the acceptor chamber after 2h of incubation, and t is the incubation time. The efflux ratio basolateral (B) to apical (A) was calculated by dividing the Papp B-A by the Papp A-B. In addition the compound recovery was calculated. The following reference compounds were used for the classification of the permeability class: Antipyrine, Pyrazosin, Verapamil, Fluvastatin, Cimetidine, Ranitidine, Atenolol, Sulfasalazine.

MOLM13 cells = test: Proliferation assay, MOLM-13; type: cell-based; conditions: Homo sapiens, 72-hour exposure, Cell Titre-Glo, read-out: Inhibition of MOLM13 cell proliferation IC50
Method: Non-adherent MOLM-13 human acute myeloid leukemia cells (DSMZ ACC 554) were seeded at a density of 5,000 cells/well in a 96-well multititer plate in 100 μL of growth medium supplemented 10% fetal calf serum. After 24 hours, cell viability of one plate (zero-point plate) was determined with the Cell Titre-Glo Luminescent Cell Viability Assay (Promega), while 50 μL of test compound containing medium was added to the wells of the other plates (final concentrations in the range of 0.001-10 μM and DMSO controls; the final concentration of the solvent dimethyl sulfoxide was 0.5%). Cell viability was assessed after 72-hour exposure with the Cell Titre-Glo Luminescent Cell Viability Assay (Promega). IC50 values (inhibitory concentration at 50% of maximal effect) were determined by means of a 4 parameter fit on measurement data which were normalized to vehicle (DMSO) treated cells (=100%) and measurement readings taken immediately before compound exposure (=0%).

| Compound | Papp A→B at 2 h, 2 μM (Caco-2 permeation assay; 2h incubation, apical to basolateral, read-out: Papp A-B (Mari)) | Papp B→A at 2 h, 2 μM (Caco-2 permeation assay; 2h incubation, basolateral to apical, read-out: Papp B-A (Mari)) | efflux ratio at 2 h, 2 μM (Caco-2 permeation assay; Papp B-A / Papp A-B) | IC50 (MOLM13 cells) |
| --- | --- | --- | --- | --- |
| COc1cc(F)ccc1-c1cc(Nc2cc(CS(C)(=O)=O)ccn2)ncn1 [Example 1, 6-(4-Fluoro-2-methoxyphenyl)-N-{4-[(methylsulfonyl)methyl]pyridin-2-yl}pyrimidin-4-amine] | 17.8 ×10⁻⁶ cm/s | 19.1 ×10⁻⁶ cm/s | 1.1 |  |
| COc1cc(F)ccc1-c1cc(Nc2cc(CS(C)(=O)=O)cc(C(F)(F)F)n2)ncn1 [Example 3, 6-(4-Fluoro-2-methoxyphenyl)-N-{4-[(methylsulfonyl)methyl]-6-(trifluoromethyl)pyridin-2-yl}pyrimidin-4-amine] |  |  |  | 18 nM |

Reference: patent US9708293B2, “N-(pyridin-2-yl)pyrimidin-4-amine derivatives containing a sulfone group” (BAYER PHARMA AKTIENGESELLSCHAFT, priority 2012, dated 2017)
